Earlier results as cited in patent publication US8809393B2, “Injectable preparations of diclofenac and its pharmaceutically acceptable salts” (Troikaa Pharmaceuticals Ltd, priority 2005, dated 2014).

Test system: erythrocytes
Settings: aqueous solution of 2% propylene glycol iso-osmotic with serum, in 45 min

CC(O)CO (stereo not shown) [propylene glycol]
haemolysis of erythrocytes: 100%
